Patent publication US20050164951A1, “Inhibitors for the soluble epoxide hydrolase” (The Regents of the University of California, priority 2003, published 2005)
Read-outs that look alike come from different tables or passages of the source.

Columns and labels:
mouse sEH = target: T1, mouse sEH (Mus musculus, UniProt P34914); assay: Inhibition of recombinant mouse sEH, IC50 assay with 4-nitrophenyl-trans-2,3-epoxy-3-phenylpropyl carbonate as substrate; type: biochemical
T1 construct: made in house; host or cells: baculovirus expression system
T1 sequence (P34914 1-554): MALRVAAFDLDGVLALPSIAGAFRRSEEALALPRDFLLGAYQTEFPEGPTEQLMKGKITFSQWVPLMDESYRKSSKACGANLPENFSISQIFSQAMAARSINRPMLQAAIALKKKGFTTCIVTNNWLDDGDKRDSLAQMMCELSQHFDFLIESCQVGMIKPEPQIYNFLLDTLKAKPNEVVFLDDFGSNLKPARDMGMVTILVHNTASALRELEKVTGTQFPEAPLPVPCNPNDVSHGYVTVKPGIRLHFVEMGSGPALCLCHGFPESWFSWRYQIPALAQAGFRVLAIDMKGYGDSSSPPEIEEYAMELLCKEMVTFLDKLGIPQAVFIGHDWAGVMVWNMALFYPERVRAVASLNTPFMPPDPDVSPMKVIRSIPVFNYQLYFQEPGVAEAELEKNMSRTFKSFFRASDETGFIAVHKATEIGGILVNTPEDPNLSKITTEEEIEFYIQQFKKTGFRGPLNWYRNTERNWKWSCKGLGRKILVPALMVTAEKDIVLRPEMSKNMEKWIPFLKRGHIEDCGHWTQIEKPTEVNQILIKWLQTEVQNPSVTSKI
Procedure: (§1) Assays were performed in triplicate. […] The curve was generated from at least three separate runs, each in triplicate, to obtain the standard deviation (SD) given in Table 1 thru Table 4.

human sEH = target: T2, human sEH (Homo sapiens, UniProt P34913); assay: Inhibition of recombinant human sEH, IC50 assay with 4-nitrophenyl-trans-2,3-epoxy-3-phenylpropyl carbonate as substrate; type: biochemical; conditions: for IC90: 0.24 μM enzyme
T2 construct: made in house; host or cells: baculovirus expression system
T2 sequence (P34913 1-555): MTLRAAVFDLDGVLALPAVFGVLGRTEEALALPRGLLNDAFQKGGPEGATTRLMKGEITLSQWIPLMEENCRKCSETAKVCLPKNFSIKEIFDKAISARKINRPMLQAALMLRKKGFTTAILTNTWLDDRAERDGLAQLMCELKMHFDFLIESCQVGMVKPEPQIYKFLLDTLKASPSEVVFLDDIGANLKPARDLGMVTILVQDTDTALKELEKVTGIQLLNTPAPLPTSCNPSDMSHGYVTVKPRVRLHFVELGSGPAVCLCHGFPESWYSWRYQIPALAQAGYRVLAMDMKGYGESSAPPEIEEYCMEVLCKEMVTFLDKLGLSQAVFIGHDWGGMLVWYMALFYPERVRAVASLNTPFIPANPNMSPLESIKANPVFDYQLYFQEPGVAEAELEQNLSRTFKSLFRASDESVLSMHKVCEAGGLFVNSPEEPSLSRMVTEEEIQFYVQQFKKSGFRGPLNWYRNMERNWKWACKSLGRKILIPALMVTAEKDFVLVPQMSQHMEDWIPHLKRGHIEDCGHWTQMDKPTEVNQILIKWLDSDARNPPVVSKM
Procedure: as §1

[1] = Table 5, 0.12 μM enzyme, 5 min preincubation, pH 7.4, 30° C., means ± SD
[2] = Table 5, […] enzyme, 5 min preincubation, pH 7.4, 30° C., means ± SD, read-out: Mouse sEH IC50
[3] = Table 5, 5 min preincubation, pH 7.4, 30° C., means ± SD
[4] = Table 5, […] enzyme, 5 min preincubation, pH 7.4, 30° C., means ± SD, read-out: Human sEH IC50
[5] = Tables 17a and b, read-out: IC50 (μM) Mouse sEH
[6] = Tables 17a and b, read-out: IC50 (μM) Human sEH
[7] = Table 9, established protocols, read-out: IC50 (μM) Mouse sEH
[8] = Table 7, established protocols, read-out: IC50 (μM) Mouse sEH
[9] = Table 7, established protocols, read-out: IC50 (μM) Human sEH
[10] = Table 9, established protocols, read-out: IC50 (μM) Human sEH

SMILES	IC50 (mouse sEH; [5])	IC50 (human sEH; [6])	other results
CCOC(=O)CCCCCCCOC(=O)CCCNC(=O)NC12CC3CC(CC(C3)C1)C2 [Compound 879]	–	–	IC90 (mouse sEH; [1]): 160 ± 20 nM; IC50 (mouse sEH; [2]): 0.05 ± 0.01 µM; IC90 (human sEH; [3]): 720 ± 10 nM; IC50 (human sEH; [4]): 0.11 ± 0.01 µM
CCOC(=O)CCCCCCCCCOC(=O)CCCNC(=O)NC12CC3CC(CC(C3)C1)C2 [Compound 880]	–	–	IC90 (mouse sEH; [1]): 260 ± 30 nM; IC50 (mouse sEH; [2]): 0.05 ± 0.01 µM; IC90 (human sEH; [3]): 680 ± 10 nM; IC50 (human sEH; [4]): 0.1 ± 0.01 µM
CCOC(=O)CCCCCCCCCCOC(=O)CCCNC(=O)NC12CC3CC(CC(C3)C1)C2 [Compound 881]	–	–	IC90 (mouse sEH; [1]): 350 ± 50 nM; IC50 (mouse sEH; [2]): 0.05 ± 0.01 µM; IC90 (human sEH; [3]): 1200 ± 100 nM; IC50 (human sEH; [4]): 0.1 ± 0.01 µM
CCOC(=O)CCCCCCCCCCCOC(=O)CCCNC(=O)NC12CC3CC(CC(C3)C1)C2 [Compound 882]	–	–	IC90 (mouse sEH; [1]): 630 ± 40 nM; IC50 (mouse sEH; [2]): 0.05 ± 0.01 µM; IC90 (human sEH; [3]): 1800 ± 200 nM; IC50 (human sEH; [4]): 0.1 ± 0.01 µM
O=C(O)CCCCNC(=O)NC1CCCCC1 [Compound 884]	–	–	IC50 (mouse sEH; Table 1, 0.12 μM enzyme, 5 min preincubation, pH 7.4, 30° C., [S] = 40 μM, means ± SD of three experiments, read-out: IC50 (μM) Mouse sEH): 0.25 ± 0.02 µM; IC50 (human sEH; Table 1, […] enzyme, 5 min preincubation, pH 7.4, 30° C., [S] = 40 μM, means ± SD of three experiments, read-out: IC50 (μM) Human sEH): 2.4 ± 0.1 µM
C#CCCCCCCNC(=O)NC12CC3CC(CC(C3)C1)C2 [Compound 900]	0.05 ± 0.01 µM	0.1 ± 0.01 µM	–
CS(=O)(=O)NCCCCCCCCCCCCNC(=O)NC12CC3CC(CC(C3)C1)C2 [Compound 901]	0.07 ± 0.01 µM	0.1 ± 0.01 µM	–
O=C(NCCCCCCCCCCCCN[S+]([O-])NC12CC3CC(CC(C3)C1)C2)NC12CC3CC(CC(C3)C1)C2 (centres unmarked) [Compound 902]	0.45 ± 0.01 µM	0.44 ± 0.01 µM	–
O=C(NC12CC3CC(CC(C3)C1)C2)C(F)(F)C(F)(F)C(F)(F)C(F)(F)C(F)(F)C(F)(F)C(F)(F)C(F)(F)C(F)(F)C(F)(F)C(F)(F)F [Compound 903]	0.1 ± 0.01 µM	0.01 ± 0.01 µM	–
CCCCC(CC)OC(=O)C1CCCC(NC(=O)NC23CC4CC(CC(C4)C2)C3)C1 (centres unmarked) [Compound 904]	–	–	IC50 (mouse sEH; [7]): 0.05 ± 0.01 µM; IC50 (human sEH; read-out: IC50 (μM) Human sEH): 0.1 ± 0.01 µM
CCCCC(CC)OC(=O)CCCNC(=O)NC12CC3CC(CC(C3)C1)C2 (centres unmarked) [Compound 905]	0.13 ± 0.01 µM	0.45 ± 0.01 µM	–
CCCCCOC(=O)C1CCCC(NC(=O)NC23CC4CC(CC(C4)C2)C3)C1 (centres unmarked) [Compound 906]	0.05 ± 0.01 µM	–	IC50 (human sEH): 0.1 ± 0.01 µM
CN(C)c1cccc2c(S(=O)(=O)NCCNC(=O)NC34CC5CC(CC(C5)C3)C4)cccc12 [Compound 907]	0.4 ± 0.01 µM	0.6 ± 0.01 µM	–
CCCCC(CC)OCCCCCNC(=O)NC12CC3CC(CC(C3)C1)C2 (centres unmarked) [Compound 910]	0.05 ± 0.01 µM	0.24 ± 0.01 µM	–
CC(=O)Nc1ccc(CC(=O)NC23CC4CC(CC(C4)C2)C3)cc1 [Compound 912]	4.1 ± 0.01 µM	35 ± 0.01 µM	–
C#COCCOCCCCCNC(=O)NC12CC3CC(CC(C3)C1)C2 [Compound 913]	–	–	IC50 (mouse sEH; [8]): 0.05 ± 0.01 µM; IC50 (human sEH; [9]): 0.1 ± 0.01 µM
O=C(CCCCCCCCCCCNC(=O)NC12CC3CC(CC(C3)C1)C2)NS(=O)(=O)c1ccccc1 [Compound 914]	–	0.1 ± 0.01 µM	IC50 (mouse sEH): 0.05 ± 0.01 µM
CC(C)=CCCC(C)CCOCCCCCNC(=O)NC12CC3CC(CC(C3)C1)C2 (centres unmarked) [Compound 915]	0.05 ± 0.01 µM	0.12 ± 0.01 µM	–
CCOC(=O)c1ccc(COC(=O)C2CCCC(NC(=O)NC34CC5CC(CC(C5)C3)C4)C2)cc1 (centres unmarked) [Compound 942]	0.05 ± 0.01 µM	0.1 ± 0.01 µM	–
CCCCC(C)OC(=O)CCCNC(=O)NC12CC3CC(CC(C3)C1)C2 (centres unmarked) [Compound 943]	0.05 ± 0.01 µM	0.13 ± 0.01 µM	–
CCCCC(C#N)OC(=O)CCCNC(=O)NC12CC3CC(CC(C3)C1)C2 (centres unmarked) [Compound 944]	0.05 ± 0.01 µM	–	IC50 (human sEH): 0.2 ± 0.01 µM

SMILES	IC50 (mouse sEH; [5])	IC50 (human sEH; [6])	other results
O=C(NCCCC(=O)OCc1ccccc1)NC12CC3CC(CC(C3)C1)C2 [Compound 945]	0.05 ± 0.01 µM	0.19 ± 0.01 µM	–
N#CC(OC(=O)CCCNC(=O)NC12CC3CC(CC(C3)C1)C2)c1ccccc1 (centres unmarked) [Compound 946]	0.05 ± 0.01 µM	0.15 ± 0.01 µM	–
CCOC(=O)c1ccc(C(C#N)OC(=O)CCCNC(=O)NC23CC4CC(CC(C4)C2)C3)cc1 (centres unmarked) [Compound 947]	0.07 ± 0.01 µM	0.11 ± 0.01 µM	–
CCOC(=O)c1ccc(C(C)OC(=O)CCCNC(=O)NC23CC4CC(CC(C4)C2)C3)cc1 (centres unmarked) [Compound 948]	0.08 ± 0.01 µM	0.12 ± 0.01 µM	–
CCOC(=O)c1ccc(C(OC(=O)CCCNC(=O)NC23CC4CC(CC(C4)C2)C3)c2ccccc2)cc1 (centres unmarked) [Compound 949]	0.05 ± 0.01 µM	0.1 ± 0.01 µM	–
O=C(NCCCCCOCCOCCOCc1ccccc1)NC12CC3CC(CC(C3)C1)C2 [Compound 951]	–	–	IC50 (mouse sEH; [8]): 0.05 ± 0.01 µM; IC50 (human sEH; [9]): 0.1 ± 0.01 µM
CCOC(=O)c1ccc(COCCOCCOCCCCCNC(=O)NC23CC4CC(CC(C4)C2)C3)cc1 [Compound 956]	0.05 ± 0.01 µM	0.1 ± 0.01 µM	–
O=C(NCCCCCOCCC(F)(F)F)NC12CC3CC(CC(C3)C1)C2 [Compound 957]	0.05 ± 0.01 µM	0.23 ± 0.01 µM	–
CCCCCOC(=O)CCCn1ccn(C23CC4CC(CC(C4)C2)C3)c1=O [Compound 958]	0.7 ± 0.01 µM	17 ± 0.01 µM	–
O=C(CCCCCCOCCOCCOCc1ccccc1)NC12CC3CC(CC(C3)C1)C2 [Compound 959]	–	–	IC50 (mouse sEH; Table 8, established protocols, read-out: IC50 (μM) Mouse sEH): 0.05 ± 0.01 µM; IC50 (human sEH; Table 8, established protocols, read-out: IC50 (μM) Human sEH): 0.11 ± 0.02 µM
CCCCCNC(=O)C1CCCC(NC(=O)NC23CC4CC(CC(C4)C2)C3)C1 (centres unmarked) [Compound 960]	–	–	IC50 (mouse sEH; [7]): 0.05 ± 0.01 µM; IC50 (human sEH; [10]): 0.1 ± 0.01 µM
CCOC(=O)CCCCCCOC1CCC(NC(=O)NC23CC4CC(CC(C4)C2)C3)CC1 (centres unmarked) [Compound 961]	–	–	IC50 (mouse sEH; [7]): 0.05 ± 0.01 µM; IC50 (human sEH; [10]): 0.1 ± 0.01 µM
O=C(CC1CCCCC1)Nc1ccccc1 [Compound 964]	3.7 ± 0.01 µM	16 ± 0.01 µM	–
COc1ccc(NC(=O)CC2CCCCC2)cc1 [Compound 965]	0.15 ± 0.01 µM	–	IC50 (human sEH): 6 ± 0.01 µM
O=C(CC1CCCCC1)Nc1cccc(Cl)c1 [Compound 966]	0.58 ± 0.01 µM	2.1 ± 0.01 µM	–
O=C(CC12CC3CC(CC(C3)C1)C2)NCCCc1ccccc1 [Compound 967]	0.07 ± 0.01 µM	0.12 ± 0.01 µM	–
O=C(Cc1ccccc1)NC1CCCCC1 [Compound 968]	2.4 ± 0.01 µM	14 ± 0.01 µM	–
O=C(Cc1cccc(Cl)c1)NC1CCCCC1 [Compound 969]	0.56 ± 0.01 µM	38 ± 0.01 µM	–
COc1ccc(CC(=O)NC2CCCCC2)cc1 [Compound 970]	1.4 ± 0.01 µM	4.8 ± 0.01 µM	–
O=C(CCCc1ccccc1)NC1CCCCC1 [Compound 971]	0.11 ± 0.01 µM	1.4 ± 0.01 µM	–
CC(C)OCCOCCOCCCCCNC(=O)NC12CC3CC(CC(C3)C1)C2 [Compound 974]	0.05 ± 0.01 µM	0.1 ± 0.01 µM	–
